Laboratory results taken from PubChem BioAssay (NCI).
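Dose response: 5 concentrations. Exposure: 48 h. Format: 96-well plates. Endpoint: linear interpolation; highest concentration if not reached. The concentration for 50% growth inhibition is given as GI50. TGI marks complete inhibition of growth.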

Tests used:
Test in all cases: NCI anticancer screen, dose series, 48 h
MDA-MB-231 breast = test system: MDA-MB-231 breast
HL-60(TB) leukemia = test system: HL-60(TB) leukemia
OVCAR-4 ovarian = test system: OVCAR-4 ovarian
LOX IMVI melanoma = test system: LOX IMVI melanoma
OVCAR-5 ovarian = test system: OVCAR-5 ovarian
TK-10 renal = test system: TK-10 renal
A498 renal = test system: A498 renal
SR leukemia = test system: SR leukemia
HCT-116 colon = test system: HCT-116 colon
SF-539 CNS = test system: SF-539 CNS
CAKI-1 renal = test system: CAKI-1 renal
NCI-H23 lung = test system: NCI-H23 lung
SK-OV-3 ovarian = test system: SK-OV-3 ovarian
U251 CNS = test system: U251 CNS
NCI/ADR-RES ovarian = test system: NCI/ADR-RES ovarian
OVCAR-8 ovarian = test system: OVCAR-8 ovarian
SK-MEL-2 melanoma = test system: SK-MEL-2 melanoma
MCF7 breast = test system: MCF7 breast
SK-MEL-5 melanoma = test system: SK-MEL-5 melanoma
RXF 393 renal = test system: RXF 393 renal
HOP-62 NSCLC = test system: HOP-62 NSCLC
CCRF-CEM leukemia = test system: CCRF-CEM leukemia
KM12 colon = test system: KM12 colon
HS 578T breast = test system: HS 578T breast
UACC-62 melanoma = test system: UACC-62 melanoma
UO-31 renal = test system: UO-31 renal
HOP-92 NSCLC = test system: HOP-92 NSCLC
K-562 leukemia = test system: K-562 leukemia
PC-3 prostate = test system: PC-3 prostate

Compound: O=C1OCC(C#Cc2ccccc2)=C1Br
- GI50 (MDA-MB-231 breast): 3.12 µM
- TGI (MDA-MB-231 breast): 14.8 µM
- GI50 (HL-60(TB) leukemia): 0.0201 µM
- TGI (HL-60(TB) leukemia): 0.384 µM
- GI50 (OVCAR-4 ovarian): 7.13 µM
- TGI (OVCAR-4 ovarian): 27.7 µM
- GI50 (LOX IMVI melanoma): 3.15 µM
- TGI (LOX IMVI melanoma): > 35.9 µM
- GI50 (OVCAR-5 ovarian): > 100 µM
- TGI (OVCAR-5 ovarian): > 100 µM
- GI50 (TK-10 renal): 0.929 µM
- TGI (TK-10 renal): 17.1 µM
- GI50 (A498 renal): 19.3 µM
- TGI (A498 renal): 54.5 µM
- GI50 (SR leukemia): 0.186 µM
- TGI (SR leukemia): > 100 µM
- GI50 (HCT-116 colon): 0.541 µM
- TGI (HCT-116 colon): > 31.6 µM
- GI50 (SF-539 CNS): 2.42 µM
- TGI (SF-539 CNS): 9.81 µM
- GI50 (CAKI-1 renal): 5.61 µM
- TGI (CAKI-1 renal): 13.4 µM
- GI50 (NCI-H23 lung): 2.94 µM
- TGI (NCI-H23 lung): 9.5 µM
- GI50 (SK-OV-3 ovarian): 52.9 µM
- TGI (SK-OV-3 ovarian): > 100 µM
- GI50 (U251 CNS): 4.88 µM
- TGI (U251 CNS): > 39.3 µM
- GI50 (NCI/ADR-RES ovarian): 6.25 µM
- TGI (NCI/ADR-RES ovarian): > 63.2 µM
- GI50 (OVCAR-8 ovarian): 2.27 µM
- TGI (OVCAR-8 ovarian): 7.26 µM
- GI50 (SK-MEL-2 melanoma): 18.8 µM
- TGI (SK-MEL-2 melanoma): 52.4 µM
- GI50 (MCF7 breast): 2.69 µM
- TGI (MCF7 breast): 12.8 µM
- GI50 (SK-MEL-5 melanoma): 1.82 µM
- TGI (SK-MEL-5 melanoma): 6.15 µM
- GI50 (RXF 393 renal): 3.96 µM
- TGI (RXF 393 renal): 31.8 µM
- GI50 (HOP-62 NSCLC): 13.2 µM
- TGI (HOP-62 NSCLC): 38.2 µM
- GI50 (CCRF-CEM leukemia): 1.1 µM
- TGI (CCRF-CEM leukemia): 5.58 µM
- GI50 (KM12 colon): 3.64 µM
- TGI (KM12 colon): 15 µM
- GI50 (HS 578T breast): 6.2 µM
- TGI (HS 578T breast): 19 µM
- GI50 (UACC-62 melanoma): 10.7 µM
- TGI (UACC-62 melanoma): 26.1 µM
- GI50 (UO-31 renal): 7.66 µM
- TGI (UO-31 renal): 22.7 µM
- GI50 (HOP-92 NSCLC): 3.93 µM
- TGI (HOP-92 NSCLC): 13.4 µM
- GI50 (K-562 leukemia): 2.63 µM
- TGI (K-562 leukemia): 11.6 µM
- GI50 (PC-3 prostate): 2.56 µM
